Assay results taken from PubChem BioAssay (NCI).
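Exposure lasted 48 hours, with cells grown in 96-well plates and compounds tested at five concentrations. At the GI50, growth is halved. TGI marks complete inhibition of growth.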

Experiments:
Assay in all cases: inhibition of tumour cell growth, NCI panel, 48 h
SR leukemia = tested on: SR leukemia
SN12C renal = tested on: SN12C renal
ACHN renal = tested on: ACHN renal
EKVX NSCLC = tested on: EKVX NSCLC
NCI-H460 lung = tested on: NCI-H460 lung
HT29 colon = tested on: HT29 colon
DU-145 prostate = tested on: DU-145 prostate
T-47D breast = tested on: T-47D breast
HCT-116 colon = tested on: HCT-116 colon
OVCAR-5 ovarian = tested on: OVCAR-5 ovarian
OVCAR-8 ovarian = tested on: OVCAR-8 ovarian
MALME-3M melanoma = tested on: MALME-3M melanoma
CAKI-1 renal = tested on: CAKI-1 renal
NCI-H226 lung = tested on: NCI-H226 lung
A498 renal = tested on: A498 renal
K-562 leukemia = tested on: K-562 leukemia
OVCAR-4 ovarian = tested on: OVCAR-4 ovarian
SF-268 CNS = tested on: SF-268 CNS
OVCAR-3 ovarian = tested on: OVCAR-3 ovarian
KM12 colon = tested on: KM12 colon
RXF 393 renal = tested on: RXF 393 renal
NCI/ADR-RES ovarian = tested on: NCI/ADR-RES ovarian
UACC-257 melanoma = tested on: UACC-257 melanoma
PC-3 prostate = tested on: PC-3 prostate
UACC-62 melanoma = tested on: UACC-62 melanoma
SNB-19 CNS = tested on: SNB-19 CNS
SK-OV-3 ovarian = tested on: SK-OV-3 ovarian
TK-10 renal = tested on: TK-10 renal
SK-MEL-2 melanoma = tested on: SK-MEL-2 melanoma
U251 CNS = tested on: U251 CNS
MDA-MB-231 breast = tested on: MDA-MB-231 breast
786-0 renal = tested on: 786-0 renal
LOX IMVI melanoma = tested on: LOX IMVI melanoma
MDA-MB-435 = tested on: MDA-MB-435
COLO 205 colon = tested on: COLO 205 colon
HS 578T breast = tested on: HS 578T breast
SK-MEL-5 melanoma = tested on: SK-MEL-5 melanoma
UO-31 renal = tested on: UO-31 renal
BT-549 breast = tested on: BT-549 breast
SNB-75 CNS = tested on: SNB-75 CNS
MCF7 breast = tested on: MCF7 breast
HCT-15 colon = tested on: HCT-15 colon
NCI-H522 lung = tested on: NCI-H522 lung
HCC-2998 colon = tested on: HCC-2998 colon
SW-620 colon = tested on: SW-620 colon
HL-60(TB) leukemia = tested on: HL-60(TB) leukemia
M14 melanoma = tested on: M14 melanoma
HOP-92 NSCLC = tested on: HOP-92 NSCLC
RPMI-8226 leukemia = tested on: RPMI-8226 leukemia
HOP-62 NSCLC = tested on: HOP-62 NSCLC
IGROV1 ovarian = tested on: IGROV1 ovarian
SF-539 CNS = tested on: SF-539 CNS
NCI-H23 lung = tested on: NCI-H23 lung
A549 NSCLC = tested on: A549 NSCLC
CCRF-CEM leukemia = tested on: CCRF-CEM leukemia
MOLT-4 leukemia = tested on: MOLT-4 leukemia
SF-295 CNS = tested on: SF-295 CNS
SK-MEL-28 melanoma = tested on: SK-MEL-28 melanoma

Nc1ccc(S(=O)(=O)c2ccc(N)cc2)cc1
GI50 (SR leukemia): > 100 µM
TGI (SR leukemia): > 100 µM
GI50 (SN12C renal): > 100 µM
TGI (SN12C renal): > 100 µM
GI50 (ACHN renal): > 100 µM
TGI (ACHN renal): > 100 µM
GI50 (EKVX NSCLC): > 100 µM
TGI (EKVX NSCLC): > 100 µM
GI50 (NCI-H460 lung): > 100 µM
TGI (NCI-H460 lung): > 100 µM
GI50 (HT29 colon): > 100 µM
TGI (HT29 colon): > 100 µM
GI50 (DU-145 prostate): > 100 µM
TGI (DU-145 prostate): > 100 µM
GI50 (T-47D breast): > 100 µM
TGI (T-47D breast): > 100 µM
GI50 (HCT-116 colon): > 100 µM
TGI (HCT-116 colon): > 100 µM
GI50 (OVCAR-5 ovarian): > 100 µM
TGI (OVCAR-5 ovarian): > 100 µM
GI50 (OVCAR-8 ovarian): > 100 µM
TGI (OVCAR-8 ovarian): > 100 µM
GI50 (MALME-3M melanoma): > 100 µM
TGI (MALME-3M melanoma): > 100 µM
GI50 (CAKI-1 renal): > 100 µM
TGI (CAKI-1 renal): > 100 µM
GI50 (NCI-H226 lung): > 100 µM
TGI (NCI-H226 lung): > 100 µM
GI50 (A498 renal): 64.8 µM
TGI (A498 renal): > 100 µM
GI50 (K-562 leukemia): > 100 µM
TGI (K-562 leukemia): > 100 µM
GI50 (OVCAR-4 ovarian): > 100 µM
TGI (OVCAR-4 ovarian): > 100 µM
GI50 (SF-268 CNS): > 100 µM
TGI (SF-268 CNS): > 100 µM
GI50 (OVCAR-3 ovarian): > 100 µM
TGI (OVCAR-3 ovarian): > 100 µM
GI50 (KM12 colon): > 100 µM
TGI (KM12 colon): > 100 µM
GI50 (RXF 393 renal): > 100 µM
TGI (RXF 393 renal): > 100 µM
GI50 (NCI/ADR-RES ovarian): > 100 µM
TGI (NCI/ADR-RES ovarian): > 100 µM
GI50 (UACC-257 melanoma): > 100 µM
TGI (UACC-257 melanoma): > 100 µM
GI50 (PC-3 prostate): > 100 µM
TGI (PC-3 prostate): > 100 µM
GI50 (UACC-62 melanoma): > 100 µM
TGI (UACC-62 melanoma): > 100 µM
GI50 (SNB-19 CNS): > 100 µM
TGI (SNB-19 CNS): > 100 µM
GI50 (SK-OV-3 ovarian): > 100 µM
TGI (SK-OV-3 ovarian): > 100 µM
GI50 (TK-10 renal): > 100 µM
TGI (TK-10 renal): > 100 µM
GI50 (SK-MEL-2 melanoma): > 100 µM
TGI (SK-MEL-2 melanoma): > 100 µM
GI50 (U251 CNS): > 100 µM
TGI (U251 CNS): > 100 µM
GI50 (MDA-MB-231 breast): > 100 µM
TGI (MDA-MB-231 breast): > 100 µM
GI50 (786-0 renal): > 100 µM
TGI (786-0 renal): > 100 µM
GI50 (LOX IMVI melanoma): > 100 µM
TGI (LOX IMVI melanoma): > 100 µM
GI50 (MDA-MB-435): > 100 µM
TGI (MDA-MB-435): > 100 µM
GI50 (COLO 205 colon): > 100 µM
TGI (COLO 205 colon): > 100 µM
GI50 (HS 578T breast): 68.4 µM
TGI (HS 578T breast): > 100 µM
GI50 (SK-MEL-5 melanoma): > 100 µM
TGI (SK-MEL-5 melanoma): > 100 µM
GI50 (UO-31 renal): > 100 µM
TGI (UO-31 renal): > 100 µM
GI50 (BT-549 breast): > 100 µM
TGI (BT-549 breast): > 100 µM
GI50 (SNB-75 CNS): > 100 µM
TGI (SNB-75 CNS): > 100 µM
GI50 (MCF7 breast): > 100 µM
TGI (MCF7 breast): > 100 µM
GI50 (HCT-15 colon): > 100 µM
TGI (HCT-15 colon): > 100 µM
GI50 (NCI-H522 lung): > 100 µM
TGI (NCI-H522 lung): > 100 µM
GI50 (HCC-2998 colon): > 100 µM
TGI (HCC-2998 colon): > 100 µM
GI50 (SW-620 colon): > 100 µM
TGI (SW-620 colon): > 100 µM
GI50 (HL-60(TB) leukemia): > 100 µM
TGI (HL-60(TB) leukemia): > 100 µM
GI50 (M14 melanoma): > 100 µM
TGI (M14 melanoma): > 100 µM
GI50 (HOP-92 NSCLC): > 100 µM
TGI (HOP-92 NSCLC): > 100 µM
GI50 (RPMI-8226 leukemia): > 100 µM
TGI (RPMI-8226 leukemia): > 100 µM
GI50 (HOP-62 NSCLC): > 100 µM
TGI (HOP-62 NSCLC): > 100 µM
GI50 (IGROV1 ovarian): > 100 µM
TGI (IGROV1 ovarian): > 100 µM
GI50 (SF-539 CNS): > 100 µM
TGI (SF-539 CNS): > 100 µM
GI50 (NCI-H23 lung): > 100 µM
TGI (NCI-H23 lung): > 100 µM
GI50 (A549 NSCLC): > 100 µM
TGI (A549 NSCLC): > 100 µM
GI50 (CCRF-CEM leukemia): > 100 µM
TGI (CCRF-CEM leukemia): > 100 µM
GI50 (MOLT-4 leukemia): > 100 µM
TGI (MOLT-4 leukemia): > 100 µM
GI50 (SF-295 CNS): > 100 µM
TGI (SF-295 CNS): > 100 µM
GI50 (SK-MEL-28 melanoma): > 100 µM
TGI (SK-MEL-28 melanoma): > 100 µM
